Experimental data from patent US12318382B2, “Methods of treating rheumatic diseases using trimetazidine-based compounds” (IMBRIA PHARMACEUTICALS, INC., priority 2018, dated 2025).

Test: Stability of CV-8972 in aqueous solution at different concentrations and pH
Format: physicochemical
Procedure: The stability of CV-8972 was analyzed. Aqueous samples containing CV-8972 at different concentrations and pH were incubated for various periods and analyzed.
Form A of CV-8972 were analyzed for stability in aqueous solution. Aqueous samples containing CV-8972 at different concentrations and pH were incubated for various periods and analyzed.

## COc1ccc(CN2CCN(CCOC(=O)c3cccnc3)CC2)c(OC)c1OC [CV-8972, 2-(4-(2,3,4-trimethoxybenzyl)piperazin-1-yl)ethyl nicotinate]
276-MBA-172 2 mg/mL pH 6 (Form A), 0 hrs
  Retention Time 5.6 (purity of CV-8972): 98.01
276-MBA-172 2 mg/mL pH 6 (Form A), 1 hrs
  Retention Time 5.6 (purity of CV-8972): 97.22
276-MBA-172 2 mg/mL pH 6 (Form A), 4 hrs
  Retention Time 5.6 (purity of CV-8972): 97.01
276-MBA-172 2 mg/mL pH 6 (Form A), 6 hrs
  Retention Time 5.6 (purity of CV-8972): 96.51
276-MBA-172 2 mg/mL pH 7 (Form A), 0 hrs
  Retention Time 5.6 (purity of CV-8972): 97.53
276-MBA-172 2 mg/mL pH 7 (Form A), 1 hrs
  Retention Time 5.6 (purity of CV-8972): 95.06
276-MBA-172 2 mg/mL pH 7 (Form A), 4 hrs
  Retention Time 5.6 (purity of CV-8972): 93.7
276-MBA-172 2 mg/mL pH 7 (Form A), 6 hrs
  Retention Time 5.6 (purity of CV-8972): 92.12
276-MBA-172 2 mg/mL pH 7 (Form A), 22 hrs
  Retention Time 5.6 (purity of CV-8972): 91.07
276-MBA-172 10 mg/mL pH 6 (Form A), 0 hrs
  Retention Time 5.6 (purity of CV-8972): 95.24
276-MBA-172 10 mg/mL pH 6 (Form A), 1 hrs
  Retention Time 5.6 (purity of CV-8972): 93.43
276-MBA-172 10 mg/mL pH 6 (Form A), 4 hrs
  Retention Time 5.6 (purity of CV-8972): 91.82
276-MBA-172 10 mg/mL pH 6 (Form A), 6 hrs
  Retention Time 5.6 (purity of CV-8972): 91.8
276-MBA-172 10 mg/mL pH 6 (Form A), 22 hrs
  Retention Time 5.6 (purity of CV-8972): 89.66
276-MBA-172 10 mg/mL pH 7 (Form A), 0 hrs
  Retention Time 5.6 (purity of CV-8972): 92.85
276-MBA-172 10 mg/mL pH 7 (Form A), 1 hrs
  Retention Time 5.6 (purity of CV-8972): 89.05
276-MBA-172 10 mg/mL pH 7 (Form A), 4 hrs
  Retention Time 5.6 (purity of CV-8972): 86.8
276-MBA-172 10 mg/mL pH 7 (Form A), 6 hrs
  Retention Time 5.6 (purity of CV-8972): 84.79
289-MBA-15-A 2 mg/mL pH 6 (Form B), 0 hrs
  Retention Time 5.6 (purity of CV-8972): 97.48
289-MBA-15-A 2 mg/mL pH 6 (Form B), 1 hrs
  Retention Time 5.6 (purity of CV-8972): 95.1
289-MBA-15-A 2 mg/mL pH 6 (Form B), 4 hrs
  Retention Time 5.6 (purity of CV-8972): 92.45
289-MBA-15-A 2 mg/mL pH 6 (Form B), 6 hrs
  Retention Time 5.6 (purity of CV-8972): 90.65
289-MBA-15-A 2 mg/mL pH 6 (Form B), 22 hrs
  Retention Time 5.6 (purity of CV-8972): 89.15
289-MBA-15-A 2 mg/mL pH 7 (Form B), 0 hrs
  Retention Time 5.6 (purity of CV-8972): 97.48
289-MBA-15-A 2 mg/mL pH 7 (Form B), 1 hrs
  Retention Time 5.6 (purity of CV-8972): 95.46
289-MBA-15-A 2 mg/mL pH 7 (Form B), 4 hrs
  Retention Time 5.6 (purity of CV-8972): 93.92
289-MBA-15-A 10 mg/mL pH 6 (Form B), 0 hrs
  Retention Time 5.6 (purity of CV-8972): 95.36
289-MBA-15-A 10 mg/mL pH 6 (Form B), 1 hrs
  Retention Time 5.6 (purity of CV-8972): 94.81
289-MBA-15-A 10 mg/mL pH 6 (Form B), 4 hrs
  Retention Time 5.6 (purity of CV-8972): 94.69
289-MBA-15-A 10 mg/mL pH 6 (Form B), 6 hrs
  Retention Time 5.6 (purity of CV-8972): 94.39
289-MBA-15-A 10 mg/mL pH 6 (Form B), 22 hrs
  Retention Time 5.6 (purity of CV-8972): 93.93
289-MBA-15-A 10 mg/mL pH 7 (Form B), 0 hrs
  Retention Time 5.6 (purity of CV-8972): 91.5
289-MBA-15-A 10 mg/mL pH 7 (Form B), 1 hrs
  Retention Time 5.6 (purity of CV-8972): 86.18
289-MBA-15-A 10 mg/mL pH 7 (Form B), 4 hrs
  Retention Time 5.6 (purity of CV-8972): 82.36
289-MBA-15-A 10 mg/mL pH 7 (Form B), 6 hrs
  Retention Time 5.6 (purity of CV-8972): 79.37
